Test system: C. acnes
Assay: Antibacterial activity: inhibition diameter of growth of C. acnes
Assay type: cell-based, Cutibacterium acnes
Details: for Inhibition diameter (cm): C. acnes
Text: In addition, the antibacterial activity (C. acnes) of these three products was compared according to the method described later in the present application. The inhibition diameter is proportional to the antibacterial efficacy of the product tested.
The results concerning the antibacterial effect of the active ingredient according to the invention compared to those of punicalagin, the main compound of the polyphenols present in the fruit of the pomegranate, are presented in Table 6.

With `O=C1O[C@H]2[C@@H]3OC(=O)c4cc(O)c(O)c(O)c4-c4c(O)c(O)c5oc(=O)c6c(c(O)c(O)c7oc(=O)c4c5c76)-c4c(cc(O)c(O)c4O)C(=O)OC[C@H]3OC(O)[C@@H]2OC(=O)c2cc(O)c(O)c(O)c2-c2c1cc(O)c(O)c2O` (mixture of isomers) [Punicalagin] the “antibacterial activity on growth of C. acnes (in words)” value was “has an antibacterial effect on the growth of C. acnes”, the “Inhibition diameter (cm)” value (Deposit 15 μl) was 1.1 ± 0.1 cm and the “Inhibition diameter (cm)” value (Deposit 30 μl) was 1.4 ± 0.1 cm.

Reference: US12453696B2, “Active principle comprising a particular extract of Punica granatum and uses for preventing and/or treating acne” (priority 2020, dated 2025)
